From article PMC9001717, “Tyrosine 121 moves revealing a ligandable pocket that couples catalysis to ATP-binding in serine racemase” (Communications Biology, 2022)
Where a chain is given by its changes, count along the chain named. Like-named read-outs stand apart in the source and are kept apart here.

Experiments:
[1] = target: T1, human serine racemase (hSR) WT (Homo sapiens, UniProt Q9GZT4, C2D/C6D); assay: L- to D-Ser racemisation coupled luminescence assay, wild-type hSR; type: biochemical; conditions: for IC50: wild-type hSR, 1 mM ATP, 2 mM L-serine, 16.7% DMSO, ~ = extrapolated with artificial 100% point at 1 M; for inhibition of SR, in words: assay data for compounds observed to displace Tyr 121; for inhibition at 16700 µM: maximum compound concentration 16.7mM, read-out: inhibition at maximum concentration used in assay
T1 construct: (His)6 (C); made in house; host or cells: E. coli (BL21-CodonPlus (DE3)-RIL for the mutants; the wild type is only 'as described[33]')
T1 sequence (Q9GZT4 1-340 C2D/C6D): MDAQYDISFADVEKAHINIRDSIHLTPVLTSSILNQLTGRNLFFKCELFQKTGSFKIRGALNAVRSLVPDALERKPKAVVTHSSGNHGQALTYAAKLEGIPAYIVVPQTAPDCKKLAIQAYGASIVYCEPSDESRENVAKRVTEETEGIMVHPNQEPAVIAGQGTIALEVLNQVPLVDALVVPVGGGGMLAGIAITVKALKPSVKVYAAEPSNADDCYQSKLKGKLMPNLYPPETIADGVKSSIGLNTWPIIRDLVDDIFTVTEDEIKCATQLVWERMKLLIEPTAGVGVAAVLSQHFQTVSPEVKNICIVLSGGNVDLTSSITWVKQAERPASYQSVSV
Description: (§1) The ability of compounds to inhibit the L to D-Ser racemisation activity of hSR was measured in a coupled assay. In the assay, hSR converts L-Ser to D-Ser. The D-Ser is then converted into pyruvate, ammonia and hydrogen peroxide using D-amino acid oxidase. Next, the hydrogen peroxide reacts with luminol in the presence of horseradish peroxidase, producing luminescent by-product. In the assay malonate was used as a control compound and gave 100% inhibition – results for XChem compounds are shown in Supplementary Table 4 and in supplementary Fig. 12. The activity of the wild-type and the three Y121 mutants, Y121F, Y121A and Y121G was measured at six ATP concentrations (1 mM, 0.5 mM, 0.25 mM, 0.125 mM, 0.062 mM and 0.031 mM) as shown in supplementary Fig. 11.
(§2) The inhibition of hSR activity was measured using a luminescence assay in a 384 well plate (flat bottom white, Corning). Initially, each well contained 100 mM Tris pH 8.5, 0.05% Pluronic f-127 (VWR), 1 mM MgCl2, 1 mM ATP (disodium salt, Fisher), 10 µM PLP, 0.3 nM hSR, 2 mM L-serine and compound at 16.67 mM to 0.0077 mM (see supplementary Fig. 12) and had 16.7% DMSO concentration. The plate was incubated at RT with shaking for 30 min. After this, the reaction was stopped using a detection mix. The final well concentration was 100 mM Tris pH 8.5, 0.05% Pluronic f-127 (VWR), 1 mM EDTA (Fisher), 0.25 U/mL horseradish peroxidase, 0.5 U/mL D-amino acid oxidase and 25 µM Luminol (Insight Biotechnology) and 8.4% DMSO. The plate was left to incubate covered and shaking for 10 min. The plate was then read using a PHERAstar (BMG) plate reader. For the ATP dependant activity data, the method was kept the same, except for varying the concentration of ATP.
(§3) The relative light units read (x) on the PHERAstar were converted into percentage inhibition (PI) using the equation: PI=100x[1−(x−Min)/(Max−Min)] where min is negative control (100% inhibition) and max is the positive control (no inhibition). The IC50s were calculated with GraphPad (Prism 8.3.1, Graphpad Software, San Diego CA).

[2] = target: T2, hSR Tyr 121 pocket (Homo sapiens, UniProt Q9GZT4, C2D/C6D); assay: XChem crystallographic fragment screen; type: binding; set-up: key: A = best; D = worst; conditions: crystals soaked with 150 mM fragment
T2 construct: (His)6 (C); made in house; host or cells: E. coli (BL21-CodonPlus (DE3)-RIL for the mutants; the wild type is only 'as described[33]')
T2 sequence (Q9GZT4 1-340 C2D/C6D): T1 sequence (Q9GZT4 1-340 C2D/C6D)
Description: A crystallographic fragment screen was performed on holo crystals using the XChem screening strategy at Diamond Light Source[58]. For the XChem experiments, holo crystals were generated at 20 °C in 96-well Swissci 3-drop, sitting drop plates (Molecular Dimensions) using 14 mg/mL SR plus fresh 5 mM DTT dispensed in a 3:2 ratio (300 nL protein + 200 nL reservoir) equilibrated against 20 μL reservoir containing 100 mM MES pH 6.2, 100 mM Calcium chloride, 5% ethylene glycol and 20% PEG Smear Broad (Molecular Dimensions). This crystallisation condition differs from that reported in a recent crystal structure of holo SR (6SLH) which was crystallised against reservoir/precipitate of 100 mM Bis-Tris pH 6.5, 15% PEG 3350, 250 mM MgCl2[33]. ATP was present in the protein delivery buffer at 1.25-fold times the protein subunit concentration.
Crystal soaking, harvesting, mounting, and data collections were performed at the Diamond Light Source XChem facilities and beamline I04-1 through the XChem workflow[50],[59]. […] The full compound screen was performed on 600 crystals which were each soaked with 150 mM fragment compound (30% v/v of 500 mM stocks in DMSO) for ≥1.5 h before crystals were harvested and mounted on the fast microscope crystal mounting system. The fragments screened were obtained from the Diamond-SGC-iNext Poised (DSiP) XChem library.
The structure of the representative XChem holo crystal (20% DMSO soak, no fragment) presented in this paper (6ZUJ) was solved by rigid body refinement based on a previous structure (6SLH)[33] and refined with phenix.refine[71] and REFMAC5[68],[72] and modelled in coot[69]. Initial analysis of approx. 600 ligand-soaked crystals was carried out using XChemExplorer[59] a data-management and workflow tool to support large-scale simultaneous analysis of protein–ligand complexes during structure-based ligand discovery. The workflow flagged 95 structures with binding events, 44 of which were classified as interesting, spanning four distinct binding sites. Five SR structures from the XChem screen are described in this paper that are representative examples of the four major binding sites. One compound, 2-x0406, occupied not just one of the four major binding sites, but also occupied a second site adjacent to the tyrosine 121 pocket.

[3] = target: T3, hSR Y121A (Homo sapiens, UniProt Q9GZT4, C2D/C6D/Y121A); assay: L- to D-Ser racemisation coupled luminescence assay, Y121A mutant; type: biochemical; conditions: 1 mM ATP, 2 mM L-serine, 16.7% DMSO, ~ = extrapolated
T3 construct: (His)6 (C); made in house; host or cells: E. coli BL21-CodonPlus (DE3)-RIL
T3 sequence (Q9GZT4 1-340 C2D/C6D/Y121A): T1 sequence (Q9GZT4 1-340 C2D/C6D) with Y121A
Description: as §1, §2, §3

[4] = target: T4, hSR Y121F (Homo sapiens, UniProt Q9GZT4, C2D/C6D/Y121F); assay: L- to D-Ser racemisation coupled luminescence assay, Y121F mutant; type: biochemical; conditions: 1 mM ATP, 2 mM L-serine, 16.7% DMSO, ~ = extrapolated
T4 construct: (His)6 (C); made in house; host or cells: E. coli BL21-CodonPlus (DE3)-RIL
T4 sequence (Q9GZT4 1-340 C2D/C6D/Y121F): T1 sequence (Q9GZT4 1-340 C2D/C6D) with Y121F
Description: as §1, §2, §3

[5] = target: T5, hSR Y121G (Homo sapiens, UniProt Q9GZT4, C2D/C6D/Y121G); assay: L- to D-Ser racemisation coupled luminescence assay, Y121G mutant; type: biochemical; conditions: 1 mM ATP, 2 mM L-serine, 16.7% DMSO, ~ = extrapolated
T5 construct: (His)6 (C); made in house; host or cells: E. coli BL21-CodonPlus (DE3)-RIL
T5 sequence (Q9GZT4 1-340 C2D/C6D/Y121G): T1 sequence (Q9GZT4 1-340 C2D/C6D) with Y121G
Description: as §1, §2, §3

[6] = system: rat brain SR; set-up: method as in PMID 30918891, PMID 12021263; conditions: cited from earlier work
[7] = system: SR; set-up: method as in supplementary refs 2, 11-32; conditions: literature summary; ref supplementary refs 2, 11-32; cited from earlier work
[8] = target: SR; conditions: cited from earlier work; for Ki: review of SR inhibitors
[9] = system: slime mould (D. discoideum) SR; set-up: method as in ref 56 (a number printed in a supplementary file, which may have a reference list of its own: not looked up in the article's list); conditions: ref 56; cited from earlier work

| Molecule | IC50 [1] | Initial rank from examination of XChem electron density/fit [2] | IC50 [3] | IC50 [4] | also measured |
| --- | --- | --- | --- | --- | --- |
| CC(=O)NCCc1ccccc1C [1-x0495] | ~19.5 mM | A | ~23.6 mM | – | inhibition at 10000 µM ([1]; 10mM, value of the originally submitted manuscript, quoted in peer review file): 102% |
| O=C(NCc1nc2ccccc2[nH]1)c1ccco1 [2-x0406] | ~3.7 mM | – | ~8.4 mM | ~7.8 mM | IC50 [5]: ~7.4 mM |
| Nc1ccccc1N1CCOCC1 [3-x0458] | 0.0106 mM | – | 0.0094 mM | 0.0123 mM | inhibition of SR, in words [1]: reasonably potent inhibitors; inhibition at 16700 µM [1]: 100%; IC50 [5]: 0.0234 mM |
| CC(=O)NC1CNc2ccccc2C1 (centres unmarked) [4-x0482] | 0.0051 mM | – | 0.0033 mM | 0.0032 mM | inhibition of SR, in words [1]: reasonably potent inhibitors; inhibition at 16700 µM [1]: 100%; IC50 [5]: 0.0044 mM |
| NC(=O)c1cnc(C(F)(F)F)nc1 [5-x0501] | – | D | – | – | – |
| CNCC1COc2ccccc2O1 (centres unmarked) [6-x0513] | – | A | – | – | – |
| O=C(CCCc1ccccc1)N1CCOCC1 [7-x0109] | ~12.5 mM | – | ~22.3 mM | ~20.7 mM | IC50 [5]: ~26 mM |
| CCCc1nnc(NC(=O)c2ccccn2)s1 [8-x0127] | – | D | – | – | – |
| Cn1nccc1C(=O)NCc1cccs1 [9-x0154] | – | D | – | – | – |
| CC(CS(N)(=O)=O)c1ccccc1 (centres unmarked) [10-x0302] | – | D | – | – | – |
| NCc1cc(-c2ccccc2)no1 [12-x0437] | ~25.3 mM | D | ~37.6 mM | ~29.9 mM | IC50 [5]: ~26.3 mM |
| OCc1ccc(-n2cnc3ccccc32)cc1 [14-x0478] | ~6.9 mM | – | ~7.85 mM | ~7.4 mM | – |
| CS(=O)(=O)Cc1nc2ccccc2[nH]1 [15-x0306] | ~12.8 mM | – | ~16.1 mM | – | – |
| [Ca+2] [Ca^2+] | – | – | – | – | SR activity in the presence of the ion ([6]; 1 mM ion): 134% |
| N[C@@H](CC(=O)NO)C(=O)O [L-aspartic acid β-hydroxamate] | – | – | – | – | Inhibition mode [7]: Competitive; Ki [8]: < 0.1 mM |
| N[C@H](C(=O)O)[C@H](O)C(=O)O [L-erythro-3-hydroxy-aspartate] | – | – | – | – | Inhibition mode [7]: Competitive; Ki [8]: < 0.1 mM |
| Nc1ncnc2c1ncn2[C@@H]1O[C@H](COP(=O)(O)OP(=O)([O-])OP(=O)([O-])O)[C@@H](O)[C@H]1O.[Mg+2] [Mg-ATP] | – | – | – | – | increase of elimination [9]: 6 fold; increase of racemisation [9]: 2.5 fold |
| [Mg+2] [Mg^2+] | – | – | – | – | SR activity in the presence of the ion ([6]; 10 μM ion): 112% |
| [Mn+2] [Mn^2+] | – | – | – | – | SR activity in the presence of the ion ([6]; 10 μM ion): 153% |
| madecassoside | – | – | – | – | Inhibition mode [7]: Competitive; IC50 ([8]; ref 49): 0.026 mM |
